Measured values taken from US9284308B2, “Methylene linked quinolinyl modulators of RORγt” (Janssen Pharmaceutica NV, priority 2013, dated 2016).

Legend:
[1] = system: IL-17 production by CD4 T cells; test: Human Th17 assay; format: cell-based; details: Homo sapiens, CD4+ T, IL-17 production by human CD4 T cells
Description: The human Th17 assay tests the effect of RORγt modulatory compounds on IL-17 production by CD4 T cells under conditions which favor Th17 differentiation. Total CD4^+ T cells were isolated from the peripheral blood mononuclear cells (PBMC) of healthy donors using a CD4^+ T cell isolation kit II, following the manufacturer's instructions (Miltenyi Biotec). […] 50 μL of compound at titrated concentrations in DMSO were added into each well at final DMSO concentration at 0.2%. Cells were incubated for 1 hour, then 50 μL of Th17 cell differentiation medium was added to each well. The final concentrations of antibodies and cytokines (R&D Systems) in differentiation medium were: 3×10^6/mL anti-CD3/CD28 beads (prepared using human T cell activation/expansion kit, Miltenyi Biotec), 10 μg/mL anti-IL4, 10 μg/mL anti-IFNγ, 10 ng/mL IL1β, 10 ng/mL IL23, 50 ng/mL IL6, 3 ng/mL TGFβ and 20 U/mL IL2. Cells were cultured at 37° C. and 5% CO2 for 3 days. Supernatants were collected and the accumulated IL-17 in culture was measured by using MULTI-SPOT® Cytokine Plate following manufacture's instruction (Meso Scale Discovery). The plate was read using Sector Imager 6000, and IL-17 concentration was extrapolated from the standard curve. The IC50s were determined by GraphPad.

[2] = target: T1, human RORγt ligand binding domain (RORγt LBD) (Homo sapiens, UniProt P51449); test: RORγt ThermoFluor assay (ligand binding affinity from protein thermal stability)
T1 construct: His-tag (N); TurboTEV protease cleavage site (ENLYFQG) (N); made in house; host or cells: E. coli (pHIS1, modified pET vector)
T1 sequence (P51449 with tags, fused parts or gaps): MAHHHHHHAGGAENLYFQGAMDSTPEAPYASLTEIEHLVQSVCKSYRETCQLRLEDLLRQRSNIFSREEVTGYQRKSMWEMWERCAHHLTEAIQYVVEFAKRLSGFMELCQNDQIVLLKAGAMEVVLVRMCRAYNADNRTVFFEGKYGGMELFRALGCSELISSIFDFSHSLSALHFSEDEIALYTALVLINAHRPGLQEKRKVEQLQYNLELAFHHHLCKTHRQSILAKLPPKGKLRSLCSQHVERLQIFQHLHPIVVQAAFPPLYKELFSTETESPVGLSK
Description: This approach is applicable to a wide variety of systems, and rigorous in theoretical interpretation through quantitation of equilibrium binding constants (KD).
The shift in the melting point described as a ΔTm is proportional to the concentration and affinity of the ligand.
RORγt ThermoFluor® Assay Construct
Protein and compound solutions are dispensed into black 384-well polypropylene PCR microplates (Abgene) and overlayed with silicone oil (1 μL, Fluka, type DC 200) to prevent evaporation.
Bar-coded assay plates are robotically loaded onto a thermostatically controlled PCR-type thermal block and then heated at a typical ramp-rate of 1° C./min for all experiments. Fluorescence was measured by continuous illumination with UV light (Hamamatsu LC6) supplied via fiber optic and filtered through a band-pass filter (380-400 nm; >6 OD cutoff). Fluorescence emission of the entire 384-well plate was detected by measuring light intensity using a CCD camera (Sensys, Roper Scientific) filtered to detect 500±25 nm, resulting in simultaneous and independent readings of all 384 wells. Images were collected at each temperature, and the sum of the pixel intensity in a given area of the assay plate was recorded versus temperature. Reference wells contained RORγt without compounds, and the assay conditions were as follows: • 0.065 mg/mL RORγt • 60 μM 1,8-ANS • 100 mM Hepes, pH 7.0 • 10 mM NaCl • 2.5 mM GSH • 0.002% Tween-20
Project compounds were arranged in a pre-dosed mother plate (Greiner Bio-one) wherein compounds are serially diluted in 100% DMSO by 1:2 from a high concentration of 10 mM over 12 columns within a series (column 12 is a reference well containing DMSO, no compound). The compounds were robotically dispensed directly into assay plates (1×=[…]) using a Hummingbird capillary liquid handling instrument (Digilab). Following compound dispense, protein and dye in buffer was added to achieve the final assay volume of 3 μL, followed by 1 μL of silicone oil.

[3] = target: T2, human RORγt LBD (Homo sapiens, UniProt P51449); test: RORγt (LBD) reporter assay in HEK293T cells; format: cell-based; details: for RORγt (LBD) Reporter Assay, % inhibition @ 6 μM: 6 μM compound; for inhibition at 6 µM: HEK-293T, read-out: RORγt (LBD) Reporter Assay, % inhibition @ 6 μM, 6 μM compound
T2 construct: expressed in transfected cells; host or cells: HEK293T
T2 sequence (P51449 258-518): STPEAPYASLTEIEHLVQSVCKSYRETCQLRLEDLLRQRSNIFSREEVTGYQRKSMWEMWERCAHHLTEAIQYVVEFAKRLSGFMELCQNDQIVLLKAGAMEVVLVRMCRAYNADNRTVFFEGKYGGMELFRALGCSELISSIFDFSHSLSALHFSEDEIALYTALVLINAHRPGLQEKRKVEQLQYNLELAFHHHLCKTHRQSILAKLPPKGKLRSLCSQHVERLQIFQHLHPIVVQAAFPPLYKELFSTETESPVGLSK
Text: RORγt (LBD) Reporter Assay
Cells used in the assay were co-transfected with two constructs. The first construct, pBIND-RORγt LBD, contained the wild type human RORγt LBD fused to the DNA binding domain of the GAL4 protein. The second construct, pGL4.31 (Promega Cat no. C935A), contained multiple GAL4 responsive DNA elements upstream of firefly luciferase. […] The mutant construct was called pBIND-RORγt-AF2.
The pBIND vector contains the GAL4 DNA Binding Domain (GAL4 DBD) and the renilla luciferase gene under control of the SV40 promoter. Renilla luciferase expression serves as a control for transfection efficiency and cell viability.
The reporter assay was performed by transiently transfecting HEK293T cells with 5 μg of pBIND-RORγt LBD or pBIND-RORγt LBD-AF2 and 5 μg pGL4.31 (Promega Cat no. C935A) using Fugene 6 (Invitrogen Cat no. E2691) at a 1:6 ratio of DNA:Fugene 6 in a T-75 flask in which cells were at least 80% confluent. Twenty four hours after bulk transfection, cells were plated into 96-well plates at 50,000 cells/well in phenol-red free DMEM containing 5% Lipid Reduced FCS and Pen/Strep. Six hours after plating, cells were treated with compounds for 24 hours. Media was removed and cells were lysed with 50 μL 1× Glo Lysis Buffer (Promega). Dual Glo Luciferase Reagent (50 μL/well) was then added and firefly luciferase luminescence was read on an Envision after a ten minute incubation. Finally, Stop and Glo reagent (50 μL/well) was added and renilla luciferase luminescence was read on an Envision after a ten minute incubation. […] Agonist compounds increase RORγt-driven luciferase expression, and antagonist or inverse agonist compounds decrease luciferase expression.

Structure (SMILES) | IC50 [1] [µM] | Kd [2] [µM] | IC50 [3] [µM] | RORγt (LBD) Reporter Assay, % inhibition @ 6 μM [3] [%] | inhibition at 6 µM [3] [%]
COc1nc2ccc(C(O)(c3ccc(Cl)cc3)c3cncn3C)cc2c(Cl)c1Cc1ccc(C(F)(F)F)nc1 (single isomer, unassigned) [Example 39c] | 0.037 | 0.019 | 0.081 | 98 | 
COc1nc2ccc(C(O)(c3ccc(C)nc3C)c3cnnn3C)cc2c(Cl)c1Cc1ccc(F)cc1 (single isomer, unassigned) [Example 48c, (4-Chloro-3-(4-fluorobenzyl)-2-methoxyquinolin-6-yl)(2,6-dimethylpyridin-3-yl)(1-methyl-1H-1,2,3-triazol-5-yl)methanol] | 0.0023 | 0.0003 | ~0.08 | 63 | 
COc1nc2ccc(C(O)(c3ccc(Cl)cc3)c3cncn3C)cc2c(Cl)c1Cc1ccc(C(F)(F)F)nc1 (centres unmarked) [Example 39a] | 0.11 | 0.066 | 0.072 |  | 92

Continued, values first:

IC50 [1] [µM] | Kd [2] [µM] | IC50 [3] [µM] | RORγt (LBD) Reporter Assay, % inhibition @ 6 μM [3] [%] | inhibition at 6 µM [3] [%] | Structure (SMILES)
0.049 | 0.0041 | 0.098 | 98 |  | COc1nc2ccc(C(O)(c3ccc(C(F)(F)F)cc3)c3cccnc3)cc2c(Cl)c1Cc1ccc(-n2cccn2)cc1 (single isomer, unassigned) [Example 162c]
0.25 | 0.02 | 0.31 |  | 90 | COc1nc2ccc(C(O)(c3ccc(C(F)(F)F)cc3)c3cccnc3)cc2c(Cl)c1Cc1ccc(-n2cccn2)cc1 (centres unmarked) [Example 162a]
